Experiment [1] has as its system PANC-1 cells (pancreatic ductal adenocarcinoma). The experiment is described as follows: Sulforhodamine B (SRB) antiproliferative assay, PANC-1. It is filed as cell-based, human. Conditions: Homo sapiens; PANC-1, 48 h, SRB; mean ± SEM of four to six independent experiments. The procedure:
(§1) The antiproliferative properties of andrographolide and all prepared derivatives (2–26) were evaluated against a panel of different cancer cell lines, including human pancreatic ductal adenocarcinoma (PANC-1), colorectal adenocarcinoma (HCT116), melanoma (A375), breast adenocarcinoma (MCF-7) and a non-tumorigenic colon (CCD-18Co) cell line using the sulforhodamine B assay.
(§2) Human breast adenocarcinoma MCF-7, pancreatic ductal adenocarcinoma PANC-1, melanoma A375, and non-tumorigenic colon CCD-18Co cell lines were purchased from ATCC (Rockville, MD, USA). Human colorectal adenocarcinoma HCT116 cells were kindly provided by B. Vogelstein (The Johns Hopkins Kimmel Cancer Center, Baltimore, MD, USA). Tumor cells were routinely cultured in RPMI-1640 medium with UltraGlutamine from Biowest (VWR, Carnaxide, Portugal) supplemented with 10% fetal bovine serum (FBS) from Biowest (VWR, Carnaxide, Portugal), except for the PANC-1 cells, which were grown in DMEM (4.5 g/L glucose) with stable L-glutamine and sodium pyruvate and supplemented with 10% FBS. The non-tumorigenic CCD-18Co cells were cultured in EMEM (Lonza, VWR, Carnaxide, Portugal), supplemented with 10% FBS. All cells were incubated at 37 °C in a humidified atmosphere of 5% CO2. Routine mycoplasma testing was performed using the MycoAlert™ PLUS mycoplasma detection kit (Lonza).
(§3) For the evaluation of the compound effect on cell proliferation, human cell lines were seeded in 96-well plates at a density of 5.0 × 10^3 (HCT116, MCF-7, PANC-1, A375, and CCD-18Co) cells per well, for 24 h. Cells were then treated with serial dilutions of the compound (ranging from 0.63 to 30 µM), for an additional 48 h incubation period. The growth inhibitory effects were assessed by SRB assay, as described in [58], and the half-maximal inhibitory concentration (IC50 values) were determined for each cell line using the GraphPad Prism software version 7.0 (La Jolla, CA, USA). Culture medium containing a maximum of 0.05% dimethyl sulfoxide (DMSO) was used as negative control.
Background: Sulforhodamine B stains cellular protein and so reports cell mass.

For experiment [2], the system named is HCT116 cells (colorectal adenocarcinoma). The experiment is described as follows: Sulforhodamine B (SRB) antiproliferative assay, HCT116. Format: cell-based. Conditions: Homo sapiens, HCT-116, HCT116, 48 h, mean ± SEM of four to six independent experiments. Here is the method:
as §1, §2, §3

The next experiment relates to A375 cells (melanoma). The experiment is described as follows: Sulforhodamine B (SRB) antiproliferative assay, A375. It is filed as cell-based. Conditions: Homo sapiens, A-375, A375, 48 h, mean ± SEM of four to six independent experiments. The procedure: as §1, §2, §3
Experiment [3] deals with MCF-7 cells (breast adenocarcinoma). The experiment is described as follows: Sulforhodamine B (SRB) antiproliferative assay, MCF-7. Format: cell-based. To be noted: Homo sapiens, MCF7, MCF-7, 48 h, mean ± SEM of four to six independent experiments. The procedure:
as §1, §2, §3

For experiment [4], the system named is CCD-18Co cells (non-tumorigenic colon). The experiment in a line: Sulforhodamine B (SRB) antiproliferative assay, CCD-18Co. It is filed as cell-based. Conditions: Homo sapiens, CCD-18Co non-tumorigenic, 48 h, mean ± SEM of four to six independent experiments. Here is the method: as §1, §2, §3

We go through eight compounds from article PMC12114840, “Exploring the Anticancer Properties of 1,2,3-Triazole-Substituted Andrographolide Derivatives” (Pharmaceuticals, 2025).

The IC50 is the concentration at which inhibition is half-maximal. A low value points to inhibition by little substance. As to `C=C1CC[C@@H]2[C@](C)(COC(C)=O)[C@H](OC(C)=O)CC[C@@]2(C)[C@@H]1C[C@H](C1=CCOC1=O)n1cc(-c2ccncc2)nn1` [Compound 22, (12R)-4-(4-pyridine)-1,2,3-triazole-3,19-diacetoxy-14-deoxy-andrographolide], the IC50 in experiment [1] was found to be 5 ± 0.4 µM; in experiment [2], 1.6 ± 0.3 µM; in the experiment with A375 cells (melanoma), 1.3 ± 0.2 µM; in experiment [3], 5.9 ± 0.1 µM; in experiment [4] it was 3.2 ± 0.9 µM.

As to `C=C1CC[C@@H]2[C@](C)(COC(C)=O)[C@H](OC(C)=O)CC[C@@]2(C)[C@@H]1C[C@H](C1=CCOC1=O)n1cc(-c2ccccn2)nn1` [Compound 24, (12R)-4-pyridine-1,2,3-triazole-3,19-diacetoxy-14-deoxy-andrographolide], the IC50 in experiment [1] came to 1.8 ± 0.1 µM; in experiment [2], 6.7 ± 3.2 µM; in the experiment on A375 cells (melanoma), 1.3 ± 0.3 µM; in experiment [3], 7 ± 0.2 µM; in experiment [4], 4.6 ± 1.4 µM.

With `C=C1CC[C@@H]2[C@](C)(COC(C)=O)[C@H](OC(C)=O)CC[C@@]2(C)[C@@H]1C[C@H](C1=CCOC1=O)n1cc(-c2ccc(OC(F)(F)F)cc2)nn1` [Compound 18], the IC50 in experiment [1] was 3.5 ± 1.6 µM; in experiment [2] it was 3.7 ± 0.5 µM; in the experiment on A375 cells (melanoma), 6.6 ± 0.8 µM; in experiment [3], 9.5 ± 0.5 µM; in experiment [4] it was 5.1 ± 0.1 µM.

As for `C=C1CC[C@@H]2[C@](C)(COC(C)=O)[C@H](OC(C)=O)CC[C@@]2(C)[C@@H]1C[C@H](N=[N+]=[N-])C1=CCOC1=O` [Compound 4, (12S)-azido-3,19-diacetoxy-14-deoxy-andrographolide], the IC50 was 3 ± 0.2 µM in experiment [1]; 1.5 ± 0.2 µM in experiment [2]; 1.2 ± 0.2 µM in the experiment on A375 cells (melanoma); 6.9 ± 0.8 µM in experiment [3]; 2.2 ± 0.8 µM in experiment [4].

For the compound `C=C1CC[C@@H]2[C@](C)(CO)[C@H](O)CC[C@@]2(C)[C@@H]1C/C=C1/C(=O)OC[C@H]1O` [Compound 1, andrographolide], the IC50 is 3.1 ± 0.1 µM in experiment [1]; 5.1 ± 1.5 µM in experiment [2]; 4 ± 0.1 µM with A375 cells (melanoma); 13.5 ± 0.5 µM in experiment [3]; 6.2 ± 1.1 µM in experiment [4].

`C=C1CC[C@@H]2[C@](C)(COC(C)=O)[C@H](OC(C)=O)CC[C@@]2(C)[C@@H]1C[C@H](C1=CCOC1=O)n1cc(C(=O)OCC)nn1` [Compound 6, (12R)-4-propriolate-1,2,3-triazole-3,19-diacetoxy-14-deoxy-andrographolide]: the IC50 in experiment [1] was determined as 3.4 ± 0.9 µM; in experiment [2], 1.2 ± 0.1 µM; with A375 cells (melanoma) it was 1.3 ± 0.3 µM; in experiment [3], 3.8 ± 0.2 µM; in experiment [4], 4.4 ± 0.2 µM.

For `C=C1CC[C@@H]2[C@](C)(COC(C)=O)[C@H](OC(C)=O)CC[C@@]2(C)[C@@H]1C[C@@H](C1=CCOC1=O)n1cc(-c2ccsc2)nn1` [Compound 26, (12S)-4-(3-thiophene)-1,2,3-triazole-3,19-diacetoxy-14-deoxy-andrographolide], the IC50 came out at 4.3 ± 1.4 µM in experiment [1]; 1.3 ± 0.1 µM in experiment [2]; 1.4 ± 0.1 µM with A375 cells (melanoma); 6.1 ± 0.2 µM in experiment [3]; 6.2 ± 1.4 µM in experiment [4].

On to `C=C1CC[C@@H]2[C@](C)(COC(C)=O)[C@H](OC(C)=O)CC[C@@]2(C)[C@@H]1C[C@H](C1=CCOC1=O)n1cc(C(C)(C)O)nn1` [Compound 5, (12R)-4-(2-methyl-2-ol)-1,2,3-triazole-3,19-diacetoxy-14-deoxy-andrographolide], for which the IC50 is 8.5 ± 1 µM in experiment [1]; 8.4 ± 1.1 µM in experiment [2]; 7.7 ± 1.3 µM in the experiment with A375 cells (melanoma); 25 ± 3 µM in experiment [3]; 7.1 ± 2.6 µM in experiment [4].
